Experimental data taken from publication PMC5913986, “Repurposing and Reformulation of the Antiparasitic Agent Flubendazole for Treatment of Cryptococcal Meningoencephalitis, a Neglected Fungal Disease” (Antimicrobial Agents and Chemotherapy, 2018).
Values after ≈ are worked out from the molar mass of the structure shown. Read-outs that look alike come from different tables or passages of the source.

Assays:
porcine tubulin [1] = biological target: T1, porcine tubulin (Sus scrofa, UniProt P02554); experiment: Porcine tubulin polymerization assay; format: biochemical; conditions: 37°C, 1 h, read-out: IC50 against porcine tubulin
T1 construct: purified porcine brain tubulin; purchased Cytoskeleton, Inc., Denver, CO BK011P; host or cells: porcine brain (tissue-purified)
Method: Porcine tubulin is generally used as a surrogate for human tubulin because of its high degree of homology (95%) ([27]). […] The commercially available porcine tubulin assay (BK011P; Cytoskeleton, Inc., Denver, CO) quantifies the time-dependent polymerization of tubulin to microtubules and thus the ability of tubulin inhibitors to disrupt this process.
The porcine tubulin assay was performed according to the manufacturer's instructions. Briefly, the 96-well assay plate was prewarmed to 37°C prior to use. Five microliters of test compound(s) and controls at 0, 1.25, 2.5, 5, and 10 μM were aliquoted into each well and prewarmed for 1 min. […] Polymerization was initiated by mixing 45 μl of reaction buffer that contained 2 mg/ml of purified porcine brain tubulin, 10 μM fluorescent reporter, PEM buffer (80 mM PIPES, 0.5 mM EGTA, 2 mM MgCl2 [pH 6.9]), 1 mM GTP, and 20.3% glycerol. Tubulin polymerization was followed by an increase in fluorescence intensity due to the incorporation of a fluorescence reporter into microtubules as polymerization occurred. The change in fluorescence was measured using an excitation and emission wavelength of 360 nm and 450 nm, respectively, every 1 min for 1 h at 37°C using a Varioskan multimode plate reader (Thermo scientific Inc.). All data points were acquired in triplicate, and IC50s were calculated with GraphPad Prism. […]

[2] = dogs, 20, 40, 100 mg/kg/day, 2 weeks; ref Janssen GLP toxicology studies; cited from earlier work
[3] = In vitro DMPK: human microsomal intrinsic clearance; format: in vitro ADME; conditions: human microsomes
[4] = set-up: species or system mice; conditions: mouse, in vivo
Method: The pharmacokinetics of oral flubendazole was determined with two independently conducted experiments. Treatment was initiated 24 h postinoculation. Doses of 2 to 12 mg/kg were used. Only the first dosing interval was studied. A serial-sacrifice design was used with groups of 3 mice that were sacrificed at 0.5, 1, 2, 8, and 24 h […].
(§1) The pharmacokinetic and pharmacodynamic data sets from mice were modeled using the program Pmetrics ([33]) and the following five inhomogeneous differential equations: (1) XP(1)=B(1)−Ka×X(1) (2) XP(2)=Ka×X(1)−(SCL/V)×X(2)−Kcp×X(2)+Kpc×X(3)−Kcb×X(2)+Kbc×X(4) (3) XP(3)=Kcp×X(2)−Kpc×X(3) (4) XP(4)=[…] (5) XP(5) = Kgmax [1−((X(4)/V)^Hg/C50g^Hg+(X(4)/V)^Hg)] × [1−(X(5)/POPMAX)]×X(5)
(§2) The system parameters and their units are as follows: B(1) (mg) represents the bolus input of flubendazole into the gut. Ka (h^−1) is the first-order rate constant collecting the gut and the central compartment, SCL (liters/h) is the clearance of flubendazole from the central compartment, V (liters) is the volume of the central compartment, and Kcp (h^−1) and Kpc (h^−1) are the first-order intercompartmental rate constants. Kgmax (log10 CFU/g/h) is the maximal rate of cryptococcal growth. POPMAX (CFU/g) is the maximum theoretical fungal density. C50g (mg/liter) is the concentration of flubendazole that induces half-maximal effects on growth. Hg is the slope function for growth. The initial condition (CFU/g; not shown in the equations) is the fungal density immediately following inoculation and is estimated along with other parameters.
(§3) Equations 1, 2, 3, and 4 are pharmacokinetic equations that describe the movement of drug from the gut, throughout the body, and into the brain. Equation 1 describes the movement of drug from the gut. Equation 2 describes the rate of change of flubendazole in the central compartment (plasma) with first-order clearance and movement of drug to and from both a peripheral (unmeasured) compartment and the cerebrum. Equations 3 and 4 describe the rate of change of drug in the peripheral and cerebral compartments, respectively. The pharmacodynamics of flubendazole against Cryptococcus neoformans is described by equation 5, which has terms that describe the capacity-limited growth of Cryptococcus and flubendazole-induced suppression of growth. The antifungal activity in the cerebrum is primarily related to concentrations in the cerebrum.

Cryptococcus neoformans [5] = experiment: Pharmacodynamics in rabbit model of cryptococcal meningitis; format: in vivo; conditions: rabbits; for antifungal effect: CSF
Method: A previously described and well-characterized rabbit model of cryptococcal meningoencephalitis ([32]) was used to further investigate the pharmacodynamics of flubendazole. Male New Zealand White rabbits were purchased from Harlan. Rabbits weighed 2.5 to 3 kg at the time of experimentation. Rabbits were immunosuppressed intramuscularly with hydrocortisone at 10 mg/kg on day −1 relative to infection and then daily throughout the experiment.
Cryptococcal meningoencephalitis was induced with the intracisternal inoculation of 0.25 ml of a suspension containing 3.8 × 10^8 CFU/ml under general anesthesia (induced with medetomidine and ketamine). This inoculum results in progressive infection that manifests as an increase in fungal burden in the CSF and reproducible encephalitis. There was minimal clinical disease with no demonstrable neurological signs in the experimental period. Mortality always occurred in the context of cisternal tapping and repeated anesthesia rather than from progressive infection.
We directly linked plasma concentrations with the antifungal effect.

[6] = set-up: method as in PMID 26443851; conditions: cited from earlier work
C. neoformans isolates [7] = experiment: MIC determination, CLSI methodology; format: cell-based, Cryptococcus neoformans; conditions: 50 strains
Method: (§4) The initial in vitro susceptibility testing was performed with H99 (ATCC 208821). An additional 49 clinical isolates were obtained from the National Centre for Microbiology Instituto de Salud Carlos III, Madrid, Spain (courtesy of Ana Alastruey-Izquierdo and Manual Cuenca-Estrella). These isolates were identified to the species level using standard microbiological techniques.
(§5) The MIC of flubendazole against H99 (ATCC 208821) and the 49 isolates was estimated using methodology of the European Committee on Antimicrobial Susceptibility Testing (EUCAST [25]) and the Clinical and Laboratory Standards Institute (CLSI [26]). The endpoint for MIC determination using was 50% for both the EUCAST and CLSI methods. MICs were performed in triplicate.

[8] = test system: C. neoformans var. grubii (ATCC 208821; H99); experiment: Hollow-fiber infection model of cryptococcal meningoencephalitis; format: cell-based, Cryptococcus neoformans; conditions: q24h for 8 days, intended peaks 1.25, 2.5, 10 mg/liter
Method: A new hollow-fiber infection model was developed to investigate the in vitro pharmacodynamics of flubendazole against C. neoformans. The same cartridges (FiberCell Systems, Frederick, MD) and configuration as previously described for bacterial pathogens was used (see, for example, reference). The extracapillary space of each cartridge was inoculated with 40 ml of a suspension containing 6 log10 CFU/ml of C. neoformans var. grubii (ATCC 208821; H99). Yeast extract-peptone-dextrose (YPD) medium was pumped from the central compartment through the cartridge and back again using a peristaltic pump (205 U; Watson-Marlow, United Kingdom). The hollow-fiber infection model was incubated at 37°C in ambient air. The time course of fungal growth was determined by removing 1 ml from the extracapillary space of the cartridge and plating serial 10-fold dilutions to YPD agar.
The relationship between flubendazole exposure and its effect was explored using a range of drug exposures. […] Various doses of flubendazole were administered q24h by infusion over 1 h for 8 days to the central compartment using a programmable syringe driver (Aladdin pump; World Precision Instruments, United Kingdom). There was a 24-h delay in the initiation of flubendazole therapy postinoculation. […]

[9] = In vitro DMPK: plasma protein binding; format: in vitro ADME
Cryptococcus neoformans [10] = format: in vivo, mice
[11] = In vitro DMPK: aqueous solubility; format: physicochemical
[12] = test system: filarial diseases such as onchocerciasis and lymphatic filariasis; set-up: method as in PMID 21609260; conditions: given subcutaneously; cited from earlier work
In vitro DMPK: logD7.4 = format: physicochemical; conditions: pH 7.4; commercially available powder
[13] = In vitro DMPK: rat hepatic intrinsic clearance; format: in vitro ADME; conditions: hepatocytes
Cryptococcus neoformans [14] = experiment: Pharmacodynamics of oral flubendazole nanoformulation in murine model of cryptococcal meningitis; format: in vivo; conditions: mice
Method: A previously described ([8]) and well-characterized murine model of cryptococcal meningitis was used to investigate the pharmacodynamics of flubendazole. All laboratory animal experiments were performed under UK Home Office project license PPL40/3630 and were approved by the University of Liverpool's Animal Welfare Ethics Review Board. Male CD1 mice were purchased from Charles River and were 20 to 30 g at the time of experimentation. An inoculum of 3 × 10^8 CFU in 0.25 ml was used for each mouse. Groups of mice (n = 3) were serially sacrificed throughout the experimental period. The brains were removed and homogenized. Serial 10-fold dilutions were plated to YPD agar supplemented with chloramphenicol to enumerate the total fungal burden. Plates were incubated in air at 30°C for at least 48 h.
The pharmacodynamics of oral flubendazole was estimated over the course of three separate independently conducted experiments. Groups of 3 mice were sacrificed at 2, 24, 48, 96, 144, and 168 h postinoculation. Dose finding studies were performed using flubendazole at 2, 4, 6, 8, and 12 mg/kg q24h orally. The upper dosage was limited by the volume restrictions for mice imposed by Home Office project license PPL40/3630. A fourth experiment compared 12 mg/kg q24 with 6 mg/kg q12h to examine whether more fractionated regimens provided any additional antifungal effect.
as §1, §2, §3

[15] = rats, 5, 15, 30 mg/kg/day (male), 2.5, 5, 10 mg/kg/day (female), 2 weeks; ref Janssen GLP toxicology studies; cited from earlier work
C. neoformans isolates [16] = experiment: MIC determination, EUCAST methodology; format: cell-based, Cryptococcus neoformans; conditions: for MIC: Cryptococcus neoformans
Method: as §4, §5

[17] = Pharmacokinetics of oral flubendazole in rabbits
Method: PK-PD relationships in the rabbit were estimated in two independently conducted experiments including 6 rabbits in each. Rabbits were placed under general anesthesia for removal of CSF via intracisternal tapping at 48 h intervals. […] Treatment was initiated 48 h postinoculation and continued for 10 days, after which time all rabbits were sacrificed. Thus, the total duration of the experiment was 288 h.
Flubendazole concentrations in all matrices were measured using validated ultrahigh-performance liquid chromatography-tandem mass spectrometry (LC-MS/MS) implemented on an Agilent 6420 triple quad mass spectrometer and an Agilent 1290 infinity LC system (Agilent Technologies UK Ltd., Cheshire, UK). Flubendazole was extracted by protein precipitation by adding 300 μl of a 50:50 mix of acetonitrile and methanol that contained the internal standard [6,7-dimethyl-2,3-di(2-pyridyl) quinoxaline; Sigma-Aldrich, Dorset, UK] at a final concentration of 1 mg/liter to 30 μl of each matrix.

porcine tubulin [18] = biological target: T1, porcine tubulin; set-up: method as in doi:10.2533/chimia.2007.368; conditions: known tubulin inhibitors; cited from earlier work

T1 sequence (P02554 whole entry): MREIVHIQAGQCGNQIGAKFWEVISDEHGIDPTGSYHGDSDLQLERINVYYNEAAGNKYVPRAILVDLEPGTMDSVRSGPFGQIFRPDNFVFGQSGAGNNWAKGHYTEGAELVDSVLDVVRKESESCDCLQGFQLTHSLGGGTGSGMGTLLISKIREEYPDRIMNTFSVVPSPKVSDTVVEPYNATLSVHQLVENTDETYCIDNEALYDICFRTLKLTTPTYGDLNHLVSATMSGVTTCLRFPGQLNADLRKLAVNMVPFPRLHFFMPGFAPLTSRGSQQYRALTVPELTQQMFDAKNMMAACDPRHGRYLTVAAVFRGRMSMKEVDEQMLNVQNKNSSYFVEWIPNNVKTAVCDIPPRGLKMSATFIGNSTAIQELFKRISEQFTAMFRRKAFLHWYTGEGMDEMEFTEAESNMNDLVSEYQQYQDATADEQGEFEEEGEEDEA
T1 sequence (P02550 whole entry partner): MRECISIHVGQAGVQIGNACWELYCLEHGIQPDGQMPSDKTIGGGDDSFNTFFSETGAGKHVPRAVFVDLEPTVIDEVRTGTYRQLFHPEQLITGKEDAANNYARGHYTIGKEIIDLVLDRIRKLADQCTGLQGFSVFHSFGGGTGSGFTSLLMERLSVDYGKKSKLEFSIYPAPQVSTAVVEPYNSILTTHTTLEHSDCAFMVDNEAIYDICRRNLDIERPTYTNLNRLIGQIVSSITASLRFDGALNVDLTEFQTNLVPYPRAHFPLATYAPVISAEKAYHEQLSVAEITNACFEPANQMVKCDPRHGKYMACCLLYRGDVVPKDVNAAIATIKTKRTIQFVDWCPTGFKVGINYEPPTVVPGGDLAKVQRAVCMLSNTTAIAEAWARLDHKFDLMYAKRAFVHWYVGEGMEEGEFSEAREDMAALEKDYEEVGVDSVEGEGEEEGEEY

COC(=O)Nc1nc2cc(C(=O)c3ccc(F)cc3)ccc2[nH]1 [flubendazole]
IC50 (porcine tubulin [1]): 2.38 µM | liver toxicity [2]: liver toxicity was also observed | toxicity findings [2]: evidence of toxicity related to the pharmacological activity of flubendazole in the gastrointestinal tract, lymphoid system, and bone marrow, as well as testicular toxicity | microsomal CLint [3]: 44 µL/min/mg | absorption after oral dosing [4]: rapidly absorbed | Ka, mean ([4]; po): 11.312 h⁻¹ | Ka, median ([4]; po): 14.895 h⁻¹ | Kbc, mean ([4]; po): 0.056 h⁻¹ | Kbc, median ([4]; po): 0.056 h⁻¹ | Kcb, mean ([4]; po): 3.446 h⁻¹ | Kcb, median ([4]; po): 0.594 h⁻¹ | Kcp, mean ([4]; po): 15.741 h⁻¹ | Kcp, median ([4]; po): 15.404 h⁻¹ | Kpc, mean ([4]; po): 16.997 h⁻¹ | Kpc, median ([4]; po): 16.915 h⁻¹ | SCL/F (apparent clearance), mean ([4]; po): 0.039 L/h | SCL/F (apparent clearance), median ([4]; po): 0.026 L/h | Vb/F (apparent volume of brain), mean ([4]; po): 0.277 L | Vb/F (apparent volume of brain), median ([4]; po): 0.146 L | Vc/F (apparent volume of central compartment), mean ([4]; po): 0.051 L | Vc/F (apparent volume of central compartment), median ([4]; po): 0.069 L | cerebrum concentrations relative to plasma ([4]; po): consistently higher than those observed in plasma | ratio of AUC for serum and AUC for cerebrum ([4]; po): 1:4.44 | antifungal effect (Cryptococcus neoformans [5]; 6 mg/kg/day orally): no demonstrable antifungal effect | antifungal effect (Cryptococcus neoformans [5]; 22.5 mg/kg q24h orally, few animals): the effect was small | fungal burden in the cerebrum at the end of the experiment vs other groups (Cryptococcus neoformans [5]; 6 and 22.5 mg/kg q24h, 288 h postinoculation, P = 0.464): no difference in the fungal burden | aneugenicity [6]: aneugenic | clastogenicity [6]: clastogenic | embryotoxicity [6]: embryotoxic | No. of isolates with MIC (mg/liter) of: 0.03 (C. neoformans isolates [7]): 2 | No. of isolates with MIC (mg/liter) of: 0.06 (C. neoformans isolates [7]): 40 | No. of isolates with MIC (mg/liter) of: 0.125 (C. neoformans isolates [7]): 8 | No. of isolates with MIC (mg/liter) of: 0.25 (C. neoformans isolates [7]): 0 | No. of isolates with MIC (mg/liter) of: 0.5 (C. neoformans isolates [7]): 0 | antifungal activity in hollow-fiber model [8]: Rapid fungicidal activity | fraction unbound [9]: 0.094 | antifungal effect, orally administered pure compound (Cryptococcus neoformans [10]; mice, oral, water, polysorbate 80/PBS, DMSO, PEG400 or cyclodextrin vehicles, data not shown): no demonstrable antifungal effect | flubendazole concentrations in plasma and cerebrum (Cryptococcus neoformans [10]; mouse, in vivo): quantifiable in plasma and the cerebrum | solubility [11]: 0.8 µM (≈ 0.251 µg/mL) | activity in filarial disease models [12]: striking activity | logD (In vitro DMPK: logD7.4): 2.9 | hepatocyte CLint [13]: 39 µL/min/1e6 cells | reduction in fungal burden compared with vehicle-treated controls (Cryptococcus neoformans [14]; 12 mg/kg of body weight/day orally (abstract)): ~2 log10CFU/g | effect on fungal growth in the brain (Cryptococcus neoformans [14]; 12 mg/kg/day orally): slowed but did not prevent fungal growth in the brain | C50g (concentration inducing half-maximal effects on growth), mean (Cryptococcus neoformans [14]; PK-PD model): 2.04 mg/L | C50g (concentration inducing half-maximal effects on growth), median (Cryptococcus neoformans [14]; PK-PD model): 1.68 mg/L | Hg (slope function for effect on growth), mean (Cryptococcus neoformans [14]; PK-PD model): 10.338 | Hg (slope function for effect on growth), median (Cryptococcus neoformans [14]; PK-PD model): 5.096 | antifungal effect of 6 mg/kg q12h compared with 12 mg/kg/day (Cryptococcus neoformans [14]; oral, single experiment, data not shown): no difference in antifungal effect | toxicity findings [15]: evidence of toxicity related to the pharmacological activity of flubendazole in the gastrointestinal tract, lymphoid system, and bone marrow, as well as testicular toxicity | MIC (C. neoformans isolates [16]; EUCAST methodology, read-out: modal MIC): 0.125 µg/mL (≈ 0.399 µM) | MIC (C. neoformans isolates [16]; range over isolates, Table 1, comparable with EUCAST and CLSI, read-out: MICs): 0.06 to 0.25 µg/mL (≈ 0.192 to 0.798 µM) | No. of isolates with MIC (mg/liter) of: 0.03 (C. neoformans isolates [16]; EUCAST, 50 strains): 1 | No. of isolates with MIC (mg/liter) of: 0.06 (C. neoformans isolates [16]; EUCAST, 50 strains): 19 | No. of isolates with MIC (mg/liter) of: 0.125 (C. neoformans isolates [16]; EUCAST, 50 strains): 25 | No. of isolates with MIC (mg/liter) of: 0.25 (C. neoformans isolates [16]; EUCAST, 50 strains): 5 | No. of isolates with MIC (mg/liter) of: 0.5 (C. neoformans isolates [16]; EUCAST, 50 strains): 0 | oral bioavailability [17]: orally bioavailable | drug concentrations in CSF or cerebrum ([17]; oral 6 or 22.5 mg/kg q24h, at time of sacrifice, limit of quantitation 0.0005 mg/liter): no quantifiable drug concentrations

CC[C@]1(O)C[C@@H]2CN(CCc3c([nH]c4ccccc34)[C@@](C(=O)OC)(c3cc4c(cc3OC)N(C)[C@H]3[C@@](O)(C(=O)OC)[C@H](OC(C)=O)[C@]5(CC)C=CCN6CC[C@]43[C@@H]65)C2)C1 [vinblastine]
IC50 (porcine tubulin [18]): 5.3 µM

CC(=O)O[C@H]1C(=O)[C@@]2(C)[C@H]([C@H](OC(=O)c3ccccc3)[C@]3(O)C[C@H](OC(=O)[C@H](O)[C@@H](NC(=O)c4ccccc4)c4ccccc4)C(C)=C1C3(C)C)[C@]1(OC(C)=O)CO[C@@H]1C[C@@H]2O [paclitaxel]
IC50 (porcine tubulin [18]): 3.9 µM
